“And” between values parts separate entries of the source, which are not always exact repeats. Identical values can stand only once.
Key:
RASAL3 exon 2 = assay: Bisulfite sequencing of RASAL3 exon 2 in CAF; type: cell-based, human; conditions: CAF treated with R1881 for 5 days
Procedure: Bisulfite Sequencing. Bisulfite sequencing was performed as described previously (Haldar S, Dru C, Mishra R, Tripathi M, Duong F, Angara B, Fernandez A, Arditi M, and Bhowmick N A. Histone deacetylase inhibitors mediate DNA damage repair in ameliorating hemorrhagic cystitis. Sci Rep. 2016; 6(39257). Briefly, genomic DNA was extracted from the NAF and CAF samples and 200 ng of DNA was bisulfite converted by using the EZ DNA Methylation-Gold Kit (Zymo Research, Irvine, Calif.) according to the manufacturer's protocol. Three overlapping primers were used for amplification of Exon 2 region of RASAL3 by ZymoTaq DNA polymerase (Zymo Research) and subsequently cloned into the pCR2.1-TOPO vector (Invitrogen by Life Technologies, Carlsbad, Calif.). The primer sequences used to amplify the three regions were designed by using the Meth-Primer program (www.urogene.org/methprimer/) and are listed in Table 4. Five clones from each sample were sequenced by using Sanger's method.

RASAL3 mRNA in CAF = assay: RASAL3 mRNA expression (rtPCR) in CAF; type: cell-based, human; conditions: 5-day treatment; Bic 10^−5 M, Enza 10^−5 M, R1881 10^−9 M, 5-Aza 5 mmol/L
Procedure: (§1) RNA expression level. All real-time PCR assays were carried out using three technical replicates and three independent cDNA syntheses on a 7500 Real-Time PCR System (Applied Biosystems). Data were normalized using an internal control gene, either GAPDH or β-actin. Relative quantification of expression levels (RQ) was calculated using the ^2-ΔΔCt method.

RASAL3 mRNA in NAF = assay: RASAL3 mRNA expression (rtPCR) in NAF; type: cell-based, human; conditions: 5-day treatment; Bic 10^−5 M, Enza 10^−5 M, R1881 10^−9 M
Procedure: as §1

RASAL3 promoter = assay: Methylation specific PCR of RASAL3 exon 2 in CAF; type: cell-based, human; conditions: CAF after treatment
Procedure: (FIG. 13A) Quantitative rtPCR analysis of RASAL3 in NAF and CAF was performed following 5 day treatment with bicalutamide (Bic, 10^−5 M), enzalutamide (Enza, 10^−5 M), R1881 (10^−9 M), or 5-Azacytidine (5-Aza, […]). RASAL3 expression was normalized GAPDH expression. Data represent the mean±SEM. *P<0.05, ***P<0.001, and ****P<0.0001, by two-way ANOVA followed by multiple comparison. Results are the average of at least three independent experiments. (FIG. 13B) MS-PCR of the RASAL3 exon 2 methylation status in CAF after treatment with enzalutamide, R1881, 5-Azacytidine and bicalutamide was performed. The PCR products in the lanes marked “U” indicate unmethylated templates for RASAL3 gene, whereas the products in the lanes marked “M” indicate methylated templates. Data are representative of three independent experiments.

C4-2B = assay: Glutamine transporter and glutaminase gene expression, C4-2B; type: cell-based, human; conditions: glutamine 2 mM
Procedure: as §1

[1] = tested on: human prostate cancer cells (CWR22Rv1); assay: Gene expression in prostate cancer cells (FIG. 15A-D); type: cell-based; conditions: for Bone morphogenic protein (BMP) expression: CWR22Rv1 (FIG. 15A); for TET2 expression: FIG. 15C, 15D
[2] = tested on: prostate cancer epithelial cells; assay: ALDH (stem marker) in prostate cancer epithelial cells; type: cell-based; conditions: prostate cancer epithelial cells (FIG. 17A, 17B)
C4-2B cells = assay: qPCR of neuroendocrine marker genes, C4-2B; type: cell-based, human; conditions: L-glutamine 2 mM, P<0.0001
Procedure: as §1

CWR22Rv1 [3] = assay: CWR22Rv1 proliferation by cell counting in conditioned media; type: cell-based, human; conditions: NAF-CM supplemented with 0.4 mM glutamine, 72 hrs; compared to CAF-CM
Procedure: (FIG. 3A) Relative mRNA expression levels of CAF-marker genes in WT and Ras^V12 mouse fibroblast determined by quantitative rtPCR and analyzed using 2-way ANOVA (n≤3). (FIG. 3B) EpCAM-positive cancer epithelial was quantitated by FACS of 3D co-cultures of human epithelial (CWR22Rv1) cells and WT or Ras^V12 mouse fibroblasts. Statistical analysis was performed using two-tailed student's t test (n≤3). (FIG. 3C) ATP was measured in CWR22Rv1 after incubation with conditioned media human NAF or CAF or mouse WT or Ras^V12 fibroblast or oligomycin in glutamine free media (n≤3). Statistical analysis was performed using 1-way ANOVA with multiple comparisons. (FIG. 3D) The diagram represents the TCA cycle in CWR22Rv1 cells treated with NAF- or CAF-conditioned media for 72 hours prior to metabolome analysis (n≤3). (FIG. 3E) The metabolome analysis further indicated differential flux to aspartate, oxidized GSH, and GSH-reduced in CWR22Rv1 cells incubated with NAF- or CAF-conditioned media. (FIG. 3F) Glutamine concentrations were measured in the conditioned media from indicated mouse fibroblasts cultured for 72 hours. (FIG. 3D-FIG. 3F) Statistical analysis was performed using two-tailed student's t test (n≤3). (FIG. 3G) CWR22Rv1 proliferation was measured by cell counting following incubation with NAF and CAF conditioned media for 72 hrs in glutamine free media. […]

CWR22Rv1 [4] = assay: qPCR of neuroendocrine marker genes, CWR22Rv1; type: cell-based, human; conditions: CWR22Rv1, L-glutamine alone vs vehicle; F-test P<0.0001
Procedure: as §1

CWR22Rv1 [5] = assay: Glutamine transporter gene expression, CWR22Rv1; type: cell-based, human; conditions: CWR22Rv1, glutamine 2 mM
Procedure: as §1

[6] = tested on: CWR22Rv1 and CAF tissue recombinants; assay: Castrate resistant sub-renal capsule xenograft (castration + enzalutamide); conditions: castrated mice treated with enzalutamide alone
Procedure: Tissue recombination mouse models. Cell recombinants were prepared by mixing 2×10^5 epithelial (CWR22Rv1) cells with 6×10^5 CAFs or stromal cells expressing KRAS^V12 per site in collagen as described before (Banerj ee J, Mishra R, Li X, Jackson R S, 2nd, Sharma A, and Bhowmick N A. A reciprocal role of prostate cancer on stromal DNA damage. Oncogene. 2014; 33(41):4924-31). The mice were either left intact or castrated 1 week after grafting. […] Castrated mice were treated with enzalutamide (5 mg/kg) either alone or in combination with L-glutamic acid Υ-(p-nitroanilide) hydrochloride (GPNA; 10 mg/kg; Sigma-Aldrich) for three weeks. The tumor volumes were measured using digital calipers and calculated using the following formula: length (mm)×width (mm)×width (mm)×0.52. When the mice were sacrificed and tumors were excised and photographed. Formalin-fixed, paraffin-embedded (FFPE) xenograft tumor tissue was sectioned and stained with hematoxylin and eosin (H&E) and staining for chromogranin A, TUNEL, phosphorylated-hi stone H3 and phosphorylated-mTOR.

bone marrow fibroblasts = assay: Glutamine expression by bone marrow fibroblasts; type: cell-based; conditions: FIG. 15E, FIG. 17D
Procedure: (§2) Measurements of glutamine. Glutamine was measured in blood plasma and conditioned media by using glutamine detection kit (Abcam) following manufacturer protocol. Deproteinization step was performed in plasma samples prior to glutamine detection. The absorbance was measured at 450 nm using a Bio-Rad Benchmark plus microplate spectrophotometer (Bio-Rad Laboratories).

[7] = tested on: prostate cancer (serum PSA); assay: PSA response of PCa patients on androgen targeted therapy; type: in vivo, human; set-up: PSA on treatment: unit not given beside the values
Description: Plasma glutamine level may be prognostic for ADT sensitivity. Considering the striking finding that glutamine can induce ADT resistance, we tested if glutamine concentrations can be associated with ADT sensitivity in prostate cancer patients. We measured blood plasma glutamine concentrations in 28 PCa patients that received ADT (Table 1). Of note, the specific androgen signaling-axis interventions in the patient pool included, androgen receptor antagonists: bicalutamide, enzalutamide, and apalutamide, as well as androgen synthesis inhibitors: leuprolide, goserelin, triptorelin, and abiraterone.

prostatic fibroblasts = assay: Glutamine in conditioned media of prostatic fibroblasts; type: cell-based; conditions: FIG. 17C
Procedure: as §2

Question: Which “prevention of CpG methylation of RASAL3 exon 2, over vehicle treated CAF” value (RASAL3 exon 2) does the source give for C[C@]1(O)CC[C@H]2[C@@H]3CCC4=CC(=O)CCC4=C3C=C[C@@]21C [R1881] here?
Answer: Its value is 2.6 fold.

Question: What about the “RASAL3 mRNA expression in CAF” value (RASAL3 mRNA in CAF) of the same compound?
Answer: The value was “significantly elevated”.

Question: What about the “RASAL3 mRNA expression in NAF” value (RASAL3 mRNA in NAF) of the same compound?
Answer: Its value is “no effect”.

Question: And the “methylation of the RASAL3 promoter (methylation specific PCR)” value (RASAL3 promoter)?
Answer: The value was “hypomethylation”.

Question: What does the source list for NC(=O)CC[C@H](N)C(=O)O [glutamine, L-glutamine]?
Answer: SLC38A1 transporter expression (C4-2B): did not seem to be regulated; expression of glutamine importers SLC1A5 and SCL38A2 (C4-2B; time dependent): consistently increased; GLS and GLS2 mRNA expression (C4-2B; within 6 hours of treatment): promote; Bone morphogenic protein (BMP) expression [1]: upregulated; TET2 expression [1]: upregulates; osteopotegrin (OPG) and FoxMl expression ([1]; increasing doses of Gln (FIG. 15B)): upregulates; ALDH (stem marker) [2]: upregulates; neuroendocrine differentiation (marker gene expression) (C4-2B cells): induce neuroendocrine differentiation; CWR22Rv1 proliferation (CWR22Rv1 [3]): restored CWR22Rv1 proliferation; expression of neuroendocrine gene panel (CWR22Rv1 [4]): upregulated; SLC38A1 transporter expression (CWR22Rv1 [5]): did not seem to be regulated; expression of glutamine importers SLC1A5 and SCL38A2 (CWR22Rv1 [5]; time dependent): consistently increased

Question: For CNC(=O)c1ccc(N2C(=S)N(c3ccc(C#N)c(C(F)(F)F)c3)C(=O)C2(C)C)cc1F [enzalutamide], which “Bone morphogenic protein (BMP) expression” value [1] is on record?
Answer: The value was “upregulated”.

Question: What about the TET2 expression [1] of the same compound?
Answer: Its TET2 expression is “induces”.

Question: What about the “tumor growth under ADT” value [6] of the same compound?
Answer: The value was “expanded despite ADT”.

Question: And the “ALDH (stem marker)” value [2]?
Answer: The value was “upregulates”.

Question: And the “glutamine expression in bone marrow fibroblasts” value (bone marrow fibroblasts)?
Answer: Its value is “promotes”.

Question: And the “RASAL3 mRNA expression in CAF” value (RASAL3 mRNA in CAF)?
Answer: The value was “little effect”.

Question: What about the PSA on treatment ([7]; individual PCa patient on the listed Rx) of the same compound?
Answer: Its PSA on treatment is 0.1 and 344.3 and <0.1 and 116.7.

Question: What about the Outcome ([7]; individual PCa patient, responsiveness to ADT based on serum PSA) of the same compound?
Answer: Its Outcome is “Responsive (2×) and Non- (2×)”.

Question: What about the “RASAL3 mRNA expression in NAF” value (RASAL3 mRNA in NAF) of the same compound?
Answer: Its value is “downregulated”.

Question: And the “glutamine expression in the conditioned media of prostatic fibroblasts” value (prostatic fibroblasts)?
Answer: Its value is “promotes”.

Question: And the “methylation of the RASAL3 promoter (methylation specific PCR)” value (RASAL3 promoter)?
Answer: The value was “hypermethylation”.

Source: patent US20210260057A1, “COMPOSITIONS AND METHODS TARGETING GLUTAMINE AND ITS METABOLISM FOR DIAGNOSING AND TREATING CANCER AND THERAPY-ASSOCIATED SIDE EFFECTS” (CEDARS-SINAI MEDICAL CENTER, priority 2018, published 2021)
